Test results: patent publication US10539552B2, “Compositions and methods for measuring cellular mechanical stress” (The Regents of the University of California, priority 2014, dated 2020)
“Also recorded” adds a separate entry of the source.

Assays:
[1] = tested on: mouse ventricular myocytes (wild-type); assay: Cell-in-Gel confocal Ca^2+ spark imaging during myocyte contraction under afterload (wild-type); format: cell-based; settings: wild-type myocytes contracting in Gel7.5%, paced 0.5 Hz, L-NAME 10 mM, L-NPA 5 μM, L-Nio 10 μM, Gp91ds 1 μM, blebbistatin 10 μM
Procedure: Cell isolation. Wild-type and transgenic mice, 8 weeks old male, were purchased from Jackson Laboratories (USA): C57BL/6J (wild-type), B6.129S4-Nos1tm1Plh/J (NOS1−/−), B6.129P2-Nos3tm1Unca/J (NOS3−/−). Transgenic mouse with R92Q mutation in cardiac troponin T was created in Tardiff s lab (22) and bred in Chen-Izu's lab. A standard enzymatic technique (40) was used to isolate the ventricular myocytes using Worthington collagenase type II and Sigma protease type XIV. All experiments were conducted at 21-22° C.
Cell-in-Gel system. Elastic gel matrix was made of a poly vinyl alcohol (PVA) hydrogel system comprised of underivatized PVA (98 KD) and a tetravalent boronate-PEG crosslinker (12). Freshly isolated myocytes were first suspended in 7% PVA solution; then 7.5% crosslinker solution was added in equal volume (Gel7.5%). Upon mixing, the boronate group crosslinks PVA hydrogel, embedding the cell in the 3D gel matrix. The boronate group also crosslinks the cis-diols of the cell-surface glycans to PVA, thereby tethering the cell surface to the gel. We used Gel7.5% for all the experiments in this study except one group in FIG. 11G using Gel5%.
Confocal imaging of Ca^2+ signals. Myocytes were loaded with Ca^2+ indicator, Fluo-4, and then embedded in the gel. Confocal imaging was performed using standard method (41).
For confocal imaging of the Ca^2+ signals, freshly isolated myocytes were continuously perfused in Tyrode solution containing (in mM): 150 NaCl, 5.4 KCl, 1.2MgCl2, 1 CaCl2, at pH 7.4, loaded with Ca^2+ indicator Fluo-4, and then embedded in the PVA gel. The cell was paced at 0.5 Hz frequency by electrical field stimulation using short (4 ms) depolarization pulses with bipolar switching (switch positive and negative polarity in consecutive stimulus pulses). The platinum electrodes were used in conjunction with continues perfusion of fresh Tyrode solution to maintain constant bath condition (pH, glucose, ionic composition, temperature etc.).
Confocal images were obtained using an Olympus FluoView 1000 Confocal Microscope (inverted configuration) with a water immersion fluorescence objective UPlanSApo 60X, NA1.2, corrected for the thickness of the No. 1 glass coverslip that is used at the bottom of the perfusion chamber. Fluo-4 was excited with 488 nm laser beam (laser power set to 5%), and the emitted fluorescence light was passed through a bandpass filter BA505-605 and collected with a PMT. The PMT voltage, gain, and offset were set to avoid any saturation and to obtain high fidelity images. The line-scan images were obtained using the highest scan speed of 2 μs/pixel.
Ca^2+ sparks were detected automatically using a homemade program based on our spark identification algorithm and adapted for x-t linescans. As in our 2-D program, sparks are identified in two stages. In the first stage, putative sparks are detected based on Cheng et al.'s description and bright but spatially small events were eliminated using the ‘live-or-die’ algorithm described in our previous publication. In the second stage, the putative sparks were classified as sparks or noise based on the statistical sieve as described previously in our publication. This analysis software provides automated and objective (agnostic via statistical sieving) detection and classification of the Ca^2+ signaling events. […]

[2] = tested on: mouse ventricular myocytes; assay: Systolic Ca^2+ transient and myocyte contraction in-Gel (Fluo-4 confocal / Fura-2 ratio, sarcomere detection); format: cell-based; settings: for systolic Ca^2+ transient (Fluo-4 confocal): compared to load-free contraction, blebbistatin 10 μM in gel; for peak systolic Ca^2+ transient (Fura-2 ratio), inhibitor effect: L-NPA 5 μM
Text: Mechanical load effects on the myocyte contraction and systolic Ca^2+ transient. To establish that the diastolic spontaneous Ca^2+ sparks are indeed caused by the mechanical load, we examined the Ca^2+ spark rate in the myocytes contracting under different mechanical loads as shown in FIG. 11G. We also examined the systolic Ca^2+ transient and the myocyte contraction under these conditions of varying loads.
Whole cell Ca^2+ transient measurement using Fura-2 ratiometric method. In order to more precisely measure the whole cell Ca^2+ concentration, we used Fura-2 ratiometric method (40) rather than Fluo-4 single wavelength measurement. Fura-2 loading was done by incubating the cells with 2.5 μM Fura-2/AM and 0.75 μM Pluronic-127 (in 20% DMSO) at room temperature for 30 minutes. After washing out Fura-2/AM, the cells were incubated for an additional 45 minutes, and then used for experiment within 2 hours. An IonOptix system (IonOptix Inc., USA) with a Hyperswitch and mounted on the Olympus X71 inverted microscope with a water immersion fluorescence objective UPlanSPao 40×, 1.15 NA, corrected for the thickness of the No. 1 glass coverslip. The excitation light was generated using a high intensity ARC lamp (Cairn). The Hyperswitch (galvanometer based switching between […] and 380 nm at 500 Hz frequency, using a 340/370d/380 filter cube) was used to deliver dual excitation beams at 340 nm and 380 nm, switching between the two wavelengths. Fura-2 fluorescence emission light was passed through a bandpass filter D510/40m, and then collected in a photomultiplier tube (PMT). The gain of the PMT was set to avoid any saturation and to obtain high fidelity photon count.
The Fura-2 fluorescence emission (F) from the excitation at 340 nm and 380 nm were recorded from the cell. The background fluorescence (BG) at 340 nm and 380 nm wavelengths were obtained in the solution and in the gel without cell. The BG signals were found slightly higher in the gel than in solution, but both were substantially lower than the Fura-2 fluorescence emissions from the cell. The Fura-2 fluorescence ratio, RFura, was calculated after background subtraction.
For measuring the systolic Ca^2+ transient, the cell was first paced to reach steady-state (>2 minutes), and then the Fura-2 fluorescence was recorded for at least 10 beats during steady-state. For SR content measurement, after the cell reaching steady-state the field stimulation was stopped to keep the cell at resting state for 15 seconds; then caffeine at high concentration (20 mM) was applied to rapidly deplete the SR load (FIG. 14A,B). The rapidity of the SR Ca^2+ release was accessed by the rising velocity of the caffeine-induced Ca^2+ transient, and the peak Ca^2+ value was used as an index to measure the SR load. […] Since RyR sensitivity to intra-SR [Ca^2+] is steep, we also acknowledge that small changes in SR Ca^2+ that we could not detect could have functional impact.
Myocyte contraction measurement. Contraction measurement using Fluo-4 confocal image was determined from the confocal x-t linescan by the difference in the positions of the left and right boundaries demarcated by the bright fluo-4 signal and the dimmer signal from the PVA gel or the bathing solution. Myocyte length was calculated by converting the fluorescence signal along each x into a binary vector. Fluorescence values above background plus a threshold were considered 1, otherwise 0. The numbers of “1” pixels was then multiplied by a scaling factor (determined by using a Ronchi ruling with 2.5 spacing) to get the cell shortening in microns. The threshold was set to half of the maximum calcium fluorescence.
Contraction measurement using IonOptix system (IonOptix Co., USA) with sarcomere detection was done by using a high speed camera (Myocam-S, 240 up to 1000 frame/s) the record the sarcomere movement during contraction. […]

CaMKII [3] = target: T1, CaMKII (Rattus norvegicus, UniProt P11275); assay: In vitro CaMKII activity measurement with Camui FRET sensor in HEK cell lysates; format: biochemical
T1 construct: Camui comprises of full length CaMKII with a CFP/YFP pair on either end of the kinase; expressed in transfected cells; host or cells: HEK293 (lysate, cytosolic fraction)
Procedure: (§1) In Vitro CaMKII activity measurements with Camui sensor. Design and synthesis of the wild-type, phosphorylation resistant, and oxidation resistant Camui constructs were previously described. HEK293 cells were cultured in Eagle's medium plus 5% fetal bovine serum and penicillin/streptomycin for 24 hour and then transfected with plasmids encoding Camui (or a mutant isoform) using a mammalian transfection kit (Stratagene). After an additional 24 hour, Camui expression was checked by fluorescence microscopy. HEK cells expressing Camui were lysed in Ca^2+-free buffer containing 50 mM Tris-HCl buffer (pH 7.5), 5 mM MgCl2, and protease inhibitors. Fluorescence measurements were performed using a MS SpectraMax plate reading spectrophotometer (Molecular Devices) with excitation and emission slits set to 4 nm, excitation wavelength set to 440 nm, emission wavelengths set to 477 nm (FCFP) and 527 nm (FYFP), respectively. The cytosolic fraction of the transfected HEK cells […] Camui fluorescence was measured in the presence of 10 μM CaM and 200 μM Ca^2+. EGTA 1 mM was used to chelate Ca^2+ and autonomous CaMKII activity was measured in the presence of 1 mM EGTA and either 50 μM or 500 μM SNAP.
(§2) CaMKII activity was known to be increased by auto-phosphorylation and by oxidation. Here we measure the effect of nitric oxide (NO) on CaMKII activity using the FRET-based biosensor Camui which detects conformational changes in CaMKII during activation. To determine whether NO can activate CaMKII, we expressed the CaMKII activity sensor Camui in HEK cells and measured autonomous activation induced by the NO donor SNAP. Camui comprises of full length CaMKII with a CFP/YFP pair on either end of the kinase, which produce substantial FRET in the closed (autoinhibited) state. If autoinhibition is disrupted, either directly by Ca^2+/CaM binding or autonomously by post-translational modification of the kinase, FRET is reduced, resulting in an increase in FCFP/FYFP. […] CaMKII is known to be autonomously activated by T286 phosphorylation and by CM280/281 oxidation. To test whether one or both of these mechanisms were responsible for SNAP-induced CaMKII activation, we repeated the HEK cell experiment using mutant versions of Camui lacking either the phosphorylation (T286) or oxidation (CM280/281) target sites. In both cases, SNAP dependent activation of CaMKII was preserved.

CaMKII [4] = assay: as above; format: biochemical; settings: Camui lacking phosphorylation (T286) or oxidation (CM280/281) sites
Procedure: as §1, §2

[5] = myocytes contracting in-Gel, L-Nio 10 μM

T1 sequence (P11275 whole entry): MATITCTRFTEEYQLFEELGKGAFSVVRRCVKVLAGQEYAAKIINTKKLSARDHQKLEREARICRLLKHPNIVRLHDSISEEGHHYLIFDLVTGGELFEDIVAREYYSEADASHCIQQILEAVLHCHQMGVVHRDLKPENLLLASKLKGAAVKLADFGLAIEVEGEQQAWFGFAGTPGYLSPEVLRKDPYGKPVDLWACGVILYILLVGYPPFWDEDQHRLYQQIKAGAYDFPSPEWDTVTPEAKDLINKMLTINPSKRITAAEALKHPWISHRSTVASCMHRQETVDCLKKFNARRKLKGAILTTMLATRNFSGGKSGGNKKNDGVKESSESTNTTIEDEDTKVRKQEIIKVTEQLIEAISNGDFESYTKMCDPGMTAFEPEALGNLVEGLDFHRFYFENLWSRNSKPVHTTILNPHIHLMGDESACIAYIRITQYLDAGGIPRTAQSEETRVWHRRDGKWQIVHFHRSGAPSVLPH

COC(=O)[C@@H](N)CCCNC(=N)N[N+](=O)[O-] [L-NAME]
afterload-induced diastolic spontaneous Ca^2+ sparks, drug effect [1]: effectively suppressed Ca^2+ sparks

Cc1ccc2c(c1)C(=O)C1(O)CCN(c3ccccc3)C1=N2 (stereo not drawn) [blebbistatin]
afterload-induced diastolic spontaneous Ca^2+ sparks, drug effect [1]: restored the Ca^2+ transient and spark rate to the load-free condition
afterload-induced diastolic spontaneous Ca^2+ sparks, drug effect ([1]; listed as Blebbistatin): normalization of Ca^2+ spark rate
systolic Ca^2+ transient (Fluo-4 confocal) [2]: restored the Ca^2+ transient and spark rate to the load-free condition
systolic Ca^2+ transient (Fluo-4 confocal) ([2]; listed as Blebbistatin): restored the Ca^2+ transient to the load-free condition
myocyte contraction amplitude (fractional shortening) ([2]; in gel versus load-free, blebbistatin 10 μM): decoupled cell contraction from Ca^2+ signaling

CC(N)=NCCC[C@H](N)C(=O)O.Cl.Cl [L-Nio, L-Nio-dihydrochloride]
afterload-induced diastolic spontaneous Ca^2+ sparks, drug effect [1]: failed to suppress Ca^2+ sparks
peak systolic Ca^2+ transient (Fura-2 ratio), inhibitor effect [2, 5]: reduced the Ca^2+ transient
Tau of the Ca^2+ transient decline [2, 5]: slowed the speed of Ca^2+ transient decline

CCCN=C(N)NCCC[C@H](N)C(=O)O.Cl [L-NPA, Nw-Propyl-L-arginine hydrochloride]
afterload-induced diastolic spontaneous Ca^2+ sparks, drug effect [1]: effectively suppressed Ca^2+ sparks
peak systolic Ca^2+ transient (Fura-2 ratio), inhibitor effect [2, 5]: reduced the Ca^2+ transient

CC(=O)N[C@@H](C(=O)O)C(C)(C)SN=O (racemic) [SNAP]
autonomous CaMKII activation (FCFP/FYFP) (CaMKII [3]; 50 μM SNAP with 1 mM EGTA, compared to EGTA only): no effect
autonomous CaMKII activation (FCFP/FYFP) (CaMKII [3]; 500 μM SNAP with 1 mM EGTA): significant increase in CaMKII activation; also recorded: Autonomous CaMKII activation was seen
CaMKII activation relative to Ca^2+/CaM dependent activity (CaMKII [3]; 500 μM SNAP with EGTA): about 50 % of Ca^2+/CaM dependent activity
SNAP dependent CaMKII activation in mutant Camui (CaMKII [4]): preserved; also recorded: not secondary to either phosphorylation (T286A) or oxidation (CM/VV)
